A short description of series [1]: ALD50 in mice (acute toxicity, i.p.). The settings on record: mouse, in vivo, ip. The method, then:
(§1) 5-hydroxy-2-methyl-7,8-cyclopentano[h]-1,2,3,4-tetrahydroisoquinoline has an ALD50 in mice of 100-150 mg/kg i.p. When administered as the base at 50 mg/kg i.p. to hypertensive rats the following percent change in systolic blood pressure was observed: […]

The next series has as its system hypertensive rats. Description: percent change in systolic blood pressure in hypertensive rats. The settings on record: base at 50 mg/kg i.p. The series is classed as in vivo. On the procedure:
as §1

In series [1], `CN1CCc2c(O)cc3c(c2C1)CCC3` [5-hydroxy-2-methyl-7,8-cyclopentano[h]-1,2,3,4-tetrahydroisoquinoline] showed an LD50 of 100 to 150 mg/kg. The “percent change in systolic blood pressure” value was -18.9% in the series with hypertensive rats (1 hour), -13.6% in the series on hypertensive rats (2 hours), -11.2% in the series on hypertensive rats (4 hours) and -4.7% in the series on hypertensive rats (24 hours).

In general, LD50 refers to the dose at which mortality reaches 50%. Read a low LD50 as a more toxic substance.

These data come from patent publication US4059586A, “5-Alkoxy-2-alkyl-1,2,3,4-tetrahydroisoquinolene-8-carboxaldehyde and derivatives” (Marion Laboratories, Inc., priority 1976, dated 1977).
